Reference: ChEMBL document CHEMBL1126435, “DuP 747: a new, potent, kappa opioid analgesic. Synthesis and pharmacology1” (Bioorg Med Chem Lett, 1992)

Columns and labels:
Rattus norvegicus [1] = experiment: Compound was evaluated for analgesic activity by rat tail-flick assay following peroral administration; details: po
Rattus norvegicus [2] = experiment: Compound was evaluated for analgesic activity by rat tail-flick assay following subcutaneous administration; details: sc
[3] = target: Sigma non-opioid intracellular receptor 1 (Homo sapiens, UniProt Q99720)
Chain of Sigma non-opioid intracellular receptor 1 (Q99720 whole entry): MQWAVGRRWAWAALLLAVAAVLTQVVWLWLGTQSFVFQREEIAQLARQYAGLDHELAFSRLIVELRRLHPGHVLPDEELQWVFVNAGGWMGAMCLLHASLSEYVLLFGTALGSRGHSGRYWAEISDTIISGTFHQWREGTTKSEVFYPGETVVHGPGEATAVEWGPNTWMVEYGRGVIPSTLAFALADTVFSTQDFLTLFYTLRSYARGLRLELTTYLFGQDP
Description: Compound was evaluated for the binding affinity to sigma opioid receptor

SMILES | ED50 (Rattus norvegicus [1]) [mg/kg] | ED50 (Rattus norvegicus [2]) [mg/kg] | Ki [3] [µM]
CN1CC[C@]23c4c5ccc(O)c4O[C@H]2[C@@H](O)C=C[C@H]3[C@H]1C5 [MORPHINE] | 54 | 4.9 | 
COc1cccc2c1CC[C@H](N1CCCC1)[C@H]2N(C)C(=O)Cc1ccc(Cl)c(Cl)c1 |  |  | 5.16
